Data on one substance can be found in patent US20200247897A1, “THERAPEUTIC ANTIBODIES BASED ON MUTATED IGG HEXAMERS” (GENMAB B.V., priority 2017, published 2020).

Experiment [1] concerns BxPC-3 pancreatic cancer cells. Description: Caspase-Glo 3/7 assay, BxPC-3. Type of experiment: cell-based, human. Particulars: 26.6 nM; 1, 2, 4 to 6 hours.
Experiment [2] has as its system colon, pancreatic, gastric, lung and skin cancer cell lines. Description: 3-days CellTiter-Glo viability assay, panel of different human cancer cell lines. Format: cell-based. Particulars: 133 nM; 11 cell lines (Example 41). In general terms: In ATP-based viability assays light output follows the ATP content of the culture.
Experiment [3] relates to BxPC-3 pancreatic cancer cells. Description: 3-days CellTiter-Glo viability assay, BxPC-3. Particulars: Z-VAD-FMK 5 μM.

Consider “TRAIL: natural DR5 ligand, recombinant human TRAIL/APO-2L”, for which, in experiment [1], the caspase-3/7 activation entry is “more rapid and more potent caspase-3/7 activation”. In addition, the “killing of human cancer cell lines” value in experiment [2] is on record as “show killing of human cancer target cell lines originating from different indications”. In addition, the “viability of BxPC-3 cells in presence of pan-caspase inhibitor Z-VAD-FMK” value in experiment [3] was “inhibited in the presence of pan-caspase inhibitor Z-VAD-FMK”.
